# Measured values from patent EP2628734A2, “5-AMINO-1,2,4-THIADIAZOLE DERIVATIVES” (Federalnoe Gosudarstvennoe Bydzhetnoe Uchrezhdenie Nauki …, priority 2010, dated 2012).
# Tested on: P2 synaptosomal fraction from rat brain cortex
# Assay: glutamate-induced uptake of 45Ca2+ isotope into synaptosomes
# Assay type: cell-based
# Text: Neuroprotective action of new compounds was studied in P2 synaptosomal fraction from rat brain cortex. 5-amino-3-(2-nitroxypropyl)-1,2,4-thiadiazole derivatives were studied in the test on glutamate-induced uptake of ^45Ca^2+ isotope into synaptosomes.
smiles,measurement,setting,value
"CC(Cc1nsc(N2CCN(c3ccccn3)CC2)n1)O[N+](=O)[O-] (centres unmarked) [1-[3-(2-Nitroxypropyl)-[1,2,4]-thiadiazol-5-yl]-4-pyridin-2-yl-piperazine]",IC50,glutamate-induced uptake of ^45Ca^2+ into synaptosomes,16.6 µM
same,inhibition at 100 µM,"glutamate-induced uptake, concentration of 100 µM, read-out: inhibition of the uptake of ^45Ca^2+ into synaptosomes vs. a control",98%
